How the values were obtained:
Experiment in all cases: relative viability (nuclei count vs DMSO), 5 days (fraction); higher = more cells survive
[1] = compound: CCN(CCO)CCCC(C)Nc1ccnc2cc(Cl)ccc12 [Hydroxychloroquine] + Cc1cc(Nc2cc(N3CCN(C)CC3)nc(Sc3ccc(NC(=O)C4CC4)cc3)n2)n[nH]1 [Tozasertib] (partner 0.1 µM)
Summary of the method: (§1)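 Lung cancer cell lines in 1536-well plates were dosed by pin tool the day after seeding, either with one drug alone or with a fixed anchor-drug dose plus five library-drug doses (not always all listed) in √10 steps. After 5 days, cells were fixed and their nuclei stained in one step (final 0.05% Triton X-100, 1% formaldehyde, 1 ug/ml Hoechst), then counted on 4× images. Relative viability is the nuclei count in treated wells divided by that in vehicle wells. Values are medians of duplicate plates.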

[2] = compound: CCN(CCO)CCCC(C)Nc1ccnc2cc(Cl)ccc12 [Hydroxychloroquine] + COc1cc2c(Oc3ccc(NC(=O)C4(C(=O)Nc5ccc(F)cc5)CC4)cc3F)ccnc2cc1OCCCN1CCOCC1 [Foretinib] (partner 0.25 µM)
Summary of the method: as §1

[3] = compound: CCN(CCO)CCCC(C)Nc1ccnc2cc(Cl)ccc12 [Hydroxychloroquine] + NC(=O)Nc1cc(-c2cccc(F)c2)sc1C(=O)N[C@H]1CCCNC1 [AZD7762] (partner 0.2 µM)
Summary of the method: as §1

[4] = compound: CCN(CCO)CCCC(C)Nc1ccnc2cc(Cl)ccc12 [Hydroxychloroquine] + CCNC(=O)c1noc(-c2cc(C(C)C)c(O)cc2O)c1-c1ccc(CN2CCOCC2)cc1 [Luminespib] (partner 0.01 µM)
Summary of the method: as §1

Cell Line	relative viability ([1]; first compound 0.5 µM)	relative viability ([1]; first compound 1.581 µM)	relative viability ([1]; first compound 5 µM)	relative viability ([1]; first compound 15.81 µM)	relative viability ([1]; first compound 50 µM)	relative viability ([2]; first compound 0.5 µM)	relative viability ([2]; first compound 1.581 µM)	relative viability ([2]; first compound 5 µM)	relative viability ([2]; first compound 15.81 µM)	relative viability ([2]; first compound 50 µM)	relative viability ([3]; first compound 0.5 µM)	relative viability ([3]; first compound 1.581 µM)	relative viability ([3]; first compound 5 µM)	relative viability ([3]; first compound 15.81 µM)	relative viability ([3]; first compound 50 µM)	relative viability ([4]; first compound 0.5 µM)	relative viability ([4]; first compound 1.581 µM)	relative viability ([4]; first compound 5 µM)	relative viability ([4]; first compound 15.81 µM)	relative viability ([4]; first compound 50 µM)
NCI-H1793	0.521	0.266	0.268	0.366	0.308	0.821	0.618	0.624	0.661	0.534	0.46	0.615	0.452	0.402	0.404	0.357	0.197	0.16	0.15	0.194
NCI-H1915	0.425	0.411	0.428	0.464	0.439	1.07	1.11	1.15	1.1	1.12	0.65	0.742	0.731	0.711	0.707	0.756	0.788	0.94	1.12	0.915
NCI-H1944	0.254	0.249	0.232	0.264	0.271	0.951	0.936	0.775	0.89	0.785	0.828	0.75	0.513	0.432	0.455	0.772	0.676	0.64	0.866	0.831
NCI-H1975	0.84	0.695	0.856	0.858	0.847	0.942	0.866	0.988	1.05	0.97	0.679	0.659	0.752	0.698	0.754	0.296	0.142	0.257	0.281	0.234
NCI-H1993	0.514	0.648	0.571	0.569	0.592	0.867	0.711	0.735	0.887	0.79	0.699	0.597	0.927	0.79	0.817	0.943	0.789	0.846	0.864	0.928
NCI-H2085	0.858	0.828	0.799	0.813	0.884	1.09	1.02	0.932	0.931	0.98	1.03	0.933	0.922	0.927	1.06	0.612	0.44	0.447	0.416	0.413
NCI-H2087	0.265	0.22	0.317	0.261	0.284	1.21	1.21	1.18	1.11	0.972	1.33	1.19	1.46	1.32	1.48	0.187	0.195	0.175	0.19	0.329
NCI-H2126	0.821	0.77	0.836	0.887	0.949	1.21	1.11	1.33	1.08	1.1	1.07	1.12	0.984	1.08	1.03	0.908	0.838	0.823	0.96	0.931

— the supplement of paper PMC10307832
